Consider 7 compounds from article PMC11672551, “Cyclic Ruthenium-Peptide Prodrugs Penetrate the Blood–Brain Barrier and Attack Glioblastoma upon Light Activation in Orthotopic Zebrafish Tumor Models” (ACS Central Science, 2024).

For data set [1], the system named is U87MG cells. As to the kind of experiment: Intracellular ROS generation, CellROX Deep Red, flow cytometry. Format: cell-based, human. To be noted: 15 μM, 24 h, green light 515 nm, 13.1 J cm–2, normoxia, n = 2. As to the method: Figure 3 Light activation mechanism in cells treated with Ru-peptide conjugates. (a) Emission intensity of cells treated with Ru-p(HH), Ru-p(MH), or Ru-p(MM) (15 μM, 24 h) and irradiated with green light (520 nm, 13.1 J cm^–2) for different times: 0–1200 s, as determined by flow cytometry using a PC5.5 filter (ex/em = 488/650 ± 50 nm). (b) Intracellular ROS generation assay in normoxic (N) and hypoxic (H) U87MG cells according to FACS analysis using nonselective ROS probe CellROX Deep Red Reagent, after treatment with Ru-p(HH), Ru-p(MH), Ru-p(MM), cisplatin, Rose Bengal, or [Ru(Ph2phen)2Cl2] (labeled as Ru-Cl2) (15 μM, 24 h), in the dark and after light irradiation (515 nm, 13.1 J cm^–2). tBHP (250 μM, 1 h) was used as a positive control for ROS generation. Error bars: SEM, n = 2. (c) Slopes of the UV–vis absorption of AMDA (for ^1O2, blue bars) or emission intensity of DHE (for O2^•–, red bars) vs irradiation time (see Figures S26–S28) after being incubated with Ru-p(HH), Ru-p(MH), Ru-p(MM), Ru-Cl2, or Rose Bengal (20 μM) and irradiated with green light in Opti-MEM solution. (d) Percentage of alive (−/−), early apoptotic (−/+), late apoptotic (+/+) and necrotic (+/−) U87MG cells costained with Apopxin Deep Red Indicator and Nuclear Green DCS1 as quantified by flow cytometry, after treatment with Ru-p(HH), Ru-p(MH), Ru-p(MM), cisplatin or Rose Bengal in the dark (D) and after light irradiation (L, DLI = 24 h, 515 nm, 13.1 J cm^–2); drug concentration: 20 μM, DLI = 24 h).
Second, CellROX Deep Red, a nonspecific molecular probe for ROS formation, was used to quantify the photodynamic behaviors by each of the three complexes in U87MG cells,.[22] […]
The generation of ROS (reactive oxygen species) in U87MG cells was measured using a ROS deep red fluorescence indicator (Abcam, ab186029). […] The levels of intracellular ROS were then determined using a CytoFLEX flow cytometer using the APC-A (638 nm excitation, 660/10 nm emission) channel. […]
On the technique in general: A flow cytometer gives signals particle by particle.

For data set [2] the following is noted: reference value; cited from earlier work. An excerpt:
Table 1 Photochemical Data for Ru-Peptide Conjugates | column: complex

Assay in data set [3]: not given
The source holds these as a separate data set.

Assay in data set [4]: not given
This is another data set of the same source.

The subject of data set [5] is U87MG cells. Put plainly: 2D cytotoxicity assay, SRB end point, dark vs green light. Type of data set: cell-based, human. To be noted: normoxia (21% O2); for EC50: SRB at 96 h. As to the method:
To test the in vitro phototoxicity of the three complexes toward 2D monolayer U87MG cells, a cell viability assay was undertaken as follows: the cells were seeded at t = 0, treated at t = 24 h, irradiated with green light (520 nm, 13.1 J cm^–2) at t = 48 h without refreshing the medium (drug-to-light interval = 24 h), further incubated in the dark for 48 h, and counted at t = 96 h with a sulforhodamine B (SRB) cell quantification end point assay.[45] Half-maximal effective concentrations (EC50 in μM), compared to untreated control, and photoindex (PI) values, defined as EC50,dark/ EC50,light, were calculated to characterize the toxicity and light activation of each Ru-peptide conjugate. […] However, a much stronger discrepancy appeared in the 2D toxicity data in hypoxic conditions (Table 2, Figure S22b). The phototherapeutic properties of Ru-p(HH) in the green light group were the poorest, leading to a PI of only 1.3. […] Ru-p(MH) stood somewhere between these values with a PI of 1.9 under hypoxia. […] The loss of activity of Ru-p(HH) under hypoxia is consistent with the hypothesis of a PDT pathway, while Ru-p(MM) keeping appreciable phototoxicity under hypoxia better fits the hypothesis of a PACT cell-killing mechanism.
U87MG cells (6000) were seeded in 96-well plates (Sarstedt, 83.3924), and each well contained 100 μL of Opti-MEM (Gibco complete medium 11058-021, supplemented with 2.5% v/v fetal calf serum (FCS), 0.2% v/v penicillin/streptomycin (P/S), and 1% v/v glutamine). They were then placed either in a normoxic (21% O2) or hypoxic (1.0% O2) incubator; 24 h later, different concentrations of Ru-p(HH), Ru-p(MH), or Ru-p(MM) dissolved in Opti-MEM (100 μL) were added to the wells in triplicate. For each complex, one dark and one light plate were involved. Each plate was further incubated in the dark for 24 h (DLI). After that, one plate was irradiated with green light (520 nm) for 20 min at 37 °C for normoxia (dose = 13.1 J cm^–2) or 30 min for hypoxia (dose = 13.0 J cm^–2), while the other plate was kept in the dark. The cells were further incubated for another 2 days in normoxic or hypoxic conditions, respectively. Finally, 100 μL of cold trichloroacetic acid (10% w/v) was added to each well to fix the cells, and all plates were then transferred to a 4 °C refrigerator for 48 h before an SRB cell quantification end point assay was performed.[45] All experiments were conducted in biologically independent triplicate.
Hypoxic cell models in vitro: all cells were incubated and passaged in a dark hypoxic incubator (1% O2) for at least 2 weeks before all hypoxia studies. Adding chemicals to the cells had to be performed in air; however, the cell-growing medium was kept in the hypoxia incubator for at least 2 days before the addition to hypoxic cells, and all hypoxic light irradiations were performed inside the hypoxic incubator set at 1.0% O2.

Read-outs that look alike come from different tables or passages of the source.

With `O=C([O-])c1c(Cl)c(Cl)c(Cl)c(Cl)c1-c1c2cc(I)c(=O)c(I)c-2oc2c(I)c([O-])c(I)cc12.[Na+].[Na+]` [Rose Bengal], in the data set with U87MG cells [1], the “intracellular ROS production, normoxia” value is “high amount of ROS”.
As for `[Cl][Ru][Cl].c1ccc(-c2ccccn2)nc1.c1ccc(-c2ccccn2)nc1.c1ccc(-c2ccccn2)nc1` [[Ru(bpy)3]Cl2], the “ΦΔ ref, singlet oxygen quantum yield of the reference” value in data set [2] was 73%.
For `N.N.[Cl][Pt][Cl]` [cisplatin], the “intracellular ROS production, normoxia” value in the data set with U87MG cells [1] is reported as “barely showed any ROS formation”.
As to Ac-HRGDH-NH2, the λem was 658 nm. For the same compound, the λmax in data set [3] is 500 nm.
As for Ac-MRGDH-NH2, the λem was found to be 700 nm. For the same compound, the λmax in data set [3] worked out at 465 nm. In data set [4], the relative emission intensity compared to Ru-p(HH) was 2%.
On the same counts, the results for Ac-MRGDM-NH2 are 700 nm, 400 nm and 0.2%.
Consider [Ru(Ph2phen)2Cl2], for which the “PI, photoindex EC50,dark/EC50,light” value with U87MG cells [5] amounted to 7.2. Besides, the EC50 (commonly the concentration at which the effect is half-maximal) in the data set on U87MG cells [5] (520 nm, 10.9 mW cm–2, 13.1 J cm–2, 20 min, DLI 24 h, n = 3, read-out: EC50, green light) stood at 200 nM; in the data set with U87MG cells [5] (light dose 0, 24 h treatment, no wash, n = 3, read-out: EC50, dark), 1430 nM. The “intracellular ROS production, normoxia” value in the data set on U87MG cells [1] is “able to generate ROS in cells”.
